# Columns and labels:
# wheat [1] = assay: Test A preemergence; format: in vivo, Triticum aestivum; conditions: preemergence; for Wheat plant response rating (0 to 100 scale): visual injury approx. 10 days after treatment
# Procedure, shortened: (§1)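 Visual injury ratings, 0 = no effect to 100 = complete control, taken about 10 days after treatment against untreated controls. Test chemicals, in a non-phytotoxic surfactant-containing solvent, were sprayed onto soil preemergence or onto one- to two-leaf plants (2–10 cm) postemergence, in loam–sand soil under greenhouse conditions.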
# pigweed [2] = assay: Test A preemergence; format: in vivo, Amaranthus retroflexus; conditions: for Pigweed plant response rating (0 to 100 scale): visual injury approx. 10 days after treatment
# Procedure, shortened: as §1
# barnyardgrass [3] = assay: Test B flood; format: in vivo, Echinochloa crus-galli; conditions: 250 g ai/ha, visual rating on 0 to 100 scale (0 no effect, 100 complete control), 13 to 15 days
# Procedure, shortened: (§2)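 Response scored visually, 0–100 relative to controls, 13–15 days after the compound was applied into paddy water; plants were at the 2-leaf stage in pots kept flooded to 3 cm.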
# barnyardgrass [4] = assay: Test A postemergence; format: in vivo, Echinochloa crus-galli
# Procedure, shortened: as §1
# corn [5] = assay: Test A preemergence; format: in vivo, Zea mays; conditions: for Corn plant response rating (0 to 100 scale): visual injury approx. 10 days after treatment
# Procedure, shortened: as §1
# barnyardgrass [6] = assay: Test A preemergence; format: in vivo, Echinochloa crus-galli
# Procedure, shortened: as §1
# morningglory [7] = assay: Test A preemergence; format: in vivo, Ipomoea spp.; conditions: for Morningglory plant response rating (0 to 100 scale): visual injury approx. 10 days after treatment
# Procedure, shortened: as §1
# corn [8] = assay: Test A postemergence; format: in vivo, Zea mays
# Procedure, shortened: as §1
# crabgrass, large [9] = assay: Test A preemergence; format: in vivo, Digitaria sanguinalis; conditions: for Crabgrass, Large plant response rating (0 to 100 scale): visual injury approx. 10 days after treatment
# Procedure, shortened: as §1
# velvetleaf [10] = assay: Test A preemergence; format: in vivo, Abutilon theophrasti; conditions: for Velvetleaf plant response rating (0 to 100 scale): visual injury approx. 10 days after treatment
# Procedure, shortened: as §1
# wheat [11] = assay: Test A postemergence; format: in vivo, Triticum aestivum
# Procedure, shortened: as §1
# sedge, umbrella = assay: Test B flood; format: in vivo, Cyperus difformis; conditions: 250 g ai/ha, visual rating on 0 to 100 scale (0 no effect, 100 complete control), 13 to 15 days
# Procedure, shortened: as §2
# rice = assay: Test B flood; format: in vivo, Oryza sativa; conditions: 250 g ai/ha, visual rating on 0 to 100 scale (0 no effect, 100 complete control), 13 to 15 days
# Procedure, shortened: as §2
# pigweed [12] = assay: Test A postemergence; format: in vivo, Amaranthus retroflexus
# Procedure, shortened: as §1
# morningglory [13] = assay: Test A postemergence; format: in vivo, Ipomoea spp.
# Procedure, shortened: as §1
# ducksalad = assay: Test B flood; format: in vivo, Heteranthera limosa; conditions: 250 g ai/ha, visual rating on 0 to 100 scale (0 no effect, 100 complete control), 13 to 15 days
# Procedure, shortened: as §2
# foxtail, giant [14] = assay: Test A postemergence; format: in vivo, Setaria faberii
# Procedure, shortened: as §1
# crabgrass, large [15] = assay: Test A postemergence; format: in vivo, Digitaria sanguinalis
# Procedure, shortened: as §1
# velvetleaf [16] = assay: Test A postemergence; format: in vivo, Abutilon theophrasti
# Procedure, shortened: as §1
# foxtail, giant [17] = assay: Test A preemergence; format: in vivo, Setaria faberii; conditions: for Foxtail, Giant plant response rating (0 to 100 scale): visual injury approx. 10 days after treatment
# Procedure, shortened: as §1
# [18] = 500 g ai/ha, visual injury after approx. 10 days, 0 to 100 scale (0 no effect, 100 complete control)
# [19] = preemergence, 500 g ai/ha, visual injury after approx. 10 days, 0 to 100 scale (0 no effect, 100 complete control)
# [20] = Postemergence, 500 g ai/ha, 0 to 100 scale (0 no effect, 100 complete control)
# [21] = postemergence, 125 g ai/ha, about 10 days, visual rating on 0 to 100 scale (0 no effect, 100 complete control)
# [22] = preemergence, 125 g ai/ha, visual injury, 0 to 100 scale, approx. 10 days
# [23] = Preemergence, 500 g ai/ha, 0 to 100 scale, 0 no effect, 100 complete control
# [24] = Postemergence, 500 g ai/ha, visual rating after approx. 10 days, 0 to 100 scale (0 no effect, 100 complete control)
smiles,measurement,setting,value
CCCNC(=O)c1cc(CC)n(Cc2nc(C(F)(F)F)no2)n1 [Compound 164],Wheat plant response rating (0 to 100 scale),wheat [1]; 125 g ai/ha,0
same,Wheat plant response rating,wheat [1]; [18],20
same,Pigweed plant response rating (0 to 100 scale),"pigweed [2]; preemergence, 125 g ai/ha",20
same,Pigweed plant response rating,pigweed [2]; [19],80
same,"Plant response rating, Barnyardgrass",barnyardgrass [3],0
same,Barnyardgrass plant response rating,barnyardgrass [4]; [20],40
same,Barnyardgrass plant response rating,barnyardgrass [4]; [21],10
same,Corn plant response rating (0 to 100 scale),"corn [5]; preemergence, 125 g ai/ha",0
same,Corn plant response rating,corn [5]; [19],50
same,Barnyardgrass plant response rating,barnyardgrass [6]; [22],10
same,Barnyardgrass plant response rating,barnyardgrass [6]; [19],80
same,Morningglory plant response rating (0 to 100 scale),"morningglory [7]; preemergence, 125 g ai/ha",0
same,Morningglory plant response rating,morningglory [7]; [19],80
same,Corn plant response rating,corn [8]; [20],40
same,Corn plant response rating,corn [8]; [21],10
same,"Crabgrass, Large plant response rating (0 to 100 scale)","crabgrass, large [9]; preemergence, 125 g ai/ha",80
same,"Crabgrass, Large plant response rating","crabgrass, large [9]; [19]",90
same,Velvetleaf plant response rating (0 to 100 scale),"velvetleaf [10]; preemergence, 125 g ai/ha",0
same,Velvetleaf plant response rating,velvetleaf [10]; [19],10
same,Wheat plant response rating,wheat [11]; [20],20
same,Wheat plant response rating,wheat [11]; [21],0
same,"Plant response rating, Sedge, Umbrella","sedge, umbrella",0
same,"Plant response rating, Rice",rice,0
same,Pigweed plant response rating,pigweed [12]; [20],40
same,Pigweed plant response rating,pigweed [12]; [21],20
same,Morningglory plant response rating,morningglory [13]; [20],70
same,Morningglory plant response rating,morningglory [13]; [21],50
same,"Plant response rating, Ducksalad",ducksalad,0
same,"Foxtail, Giant plant response rating","foxtail, giant [14]; [20]",40
same,"Foxtail, Giant plant response rating","foxtail, giant [14]; [21]",10
same,"Crabgrass, Large plant response rating","crabgrass, large [15]; [20]",60
same,"Crabgrass, Large plant response rating","crabgrass, large [15]; [21]",10
same,Velvetleaf plant response rating,velvetleaf [16]; [20],60
same,Velvetleaf plant response rating,velvetleaf [16]; [21],20
same,"Foxtail, Giant plant response rating (0 to 100 scale)","foxtail, giant [17]; preemergence, 125 g ai/ha",10
same,"Foxtail, Giant plant response rating","foxtail, giant [17]; [19]",70
CCc1cc(-c2ccc(C(F)(F)F)cc2)nn1C(=O)c1ccnc(C(F)(F)F)c1 [Compound 165],Wheat plant response rating (0 to 100 scale),wheat [1]; 125 g ai/ha,0
same,Wheat plant response rating,wheat [1]; [18],0
same,Pigweed plant response rating (0 to 100 scale),"pigweed [2]; preemergence, 125 g ai/ha",10
same,Pigweed plant response rating,pigweed [2]; [19],20
same,"Plant response rating, Barnyardgrass",barnyardgrass [3],0
same,Barnyardgrass plant response rating,barnyardgrass [4]; [20],10
same,Barnyardgrass plant response rating,barnyardgrass [4]; [21],10
same,Corn plant response rating (0 to 100 scale),"corn [5]; preemergence, 125 g ai/ha",0
same,Corn plant response rating,corn [5]; [19],0
same,Barnyardgrass plant response rating,barnyardgrass [6]; [22],0
same,Barnyardgrass plant response rating,barnyardgrass [6]; [19],0
same,Morningglory plant response rating (0 to 100 scale),"morningglory [7]; preemergence, 125 g ai/ha",0
same,Morningglory plant response rating,morningglory [7]; [19],0
same,Corn plant response rating,corn [8]; [20],10
same,Corn plant response rating,corn [8]; [21],10
same,"Crabgrass, Large plant response rating (0 to 100 scale)","crabgrass, large [9]; preemergence, 125 g ai/ha",0
same,"Crabgrass, Large plant response rating","crabgrass, large [9]; [19]",0
same,Velvetleaf plant response rating (0 to 100 scale),"velvetleaf [10]; preemergence, 125 g ai/ha",0
same,Velvetleaf plant response rating,velvetleaf [10]; [19],0
same,Wheat plant response rating,wheat [11]; [20],10
same,Wheat plant response rating,wheat [11]; [21],0
same,"Plant response rating, Sedge, Umbrella","sedge, umbrella",0
same,"Plant response rating, Rice",rice,0
same,Pigweed plant response rating,pigweed [12]; [20],80
same,Pigweed plant response rating,pigweed [12]; [21],30
same,Morningglory plant response rating,morningglory [13]; [20],20
same,Morningglory plant response rating,morningglory [13]; [21],10
same,"Plant response rating, Ducksalad",ducksalad,0
same,"Foxtail, Giant plant response rating","foxtail, giant [14]; [20]",10
same,"Foxtail, Giant plant response rating","foxtail, giant [14]; [21]",10
same,"Crabgrass, Large plant response rating","crabgrass, large [15]; [20]",20
same,"Crabgrass, Large plant response rating","crabgrass, large [15]; [21]",10
same,Velvetleaf plant response rating,velvetleaf [16]; [20],20
same,Velvetleaf plant response rating,velvetleaf [16]; [21],10
same,"Foxtail, Giant plant response rating (0 to 100 scale)","foxtail, giant [17]; preemergence, 125 g ai/ha",0
same,"Foxtail, Giant plant response rating","foxtail, giant [17]; [19]",0
CCCNC(=O)c1cc(C)n(Oc2ccnc(C(F)(F)F)c2)n1 [Compound 80],Wheat plant response rating,"wheat [1]; 125 g ai/ha, visual injury, 0 to 100 scale, approx. 10 days",0
same,Wheat plant response rating,wheat [1]; [18],10
same,Pigweed plant response rating,pigweed [2]; [23],100
same,Pigweed plant response rating,pigweed [2]; [22],60
same,"Plant response rating, Barnyardgrass",barnyardgrass [3],0
same,Barnyardgrass plant response rating,"barnyardgrass [4]; Postemergence, 125 g ai/ha, 0 to 100 scale, 0 no effect, 100 complete control",10
same,Barnyardgrass plant response rating,barnyardgrass [4]; [24],40
same,Corn plant response rating,corn [5]; [23],0
same,Corn plant response rating,corn [5]; [22],0
same,Barnyardgrass plant response rating,barnyardgrass [6]; [23],80
same,Barnyardgrass plant response rating,barnyardgrass [6]; [22],10
same,Morningglory plant response rating,morningglory [7]; [23],60
same,Morningglory plant response rating,morningglory [7]; [22],20
same,Corn plant response rating,corn [8]; [24],30
same,Corn plant response rating,corn [8]; [21],10
same,"Crabgrass, Large plant response rating","crabgrass, large [9]; [23]",100
same,"Crabgrass, Large plant response rating","crabgrass, large [9]; [22]",50
same,Velvetleaf plant response rating,velvetleaf [10]; [23],50
same,Velvetleaf plant response rating,velvetleaf [10]; [22],0
same,Wheat plant response rating,wheat [11]; [24],10
same,Wheat plant response rating,wheat [11]; [21],0
same,"Plant response rating, Sedge, Umbrella","sedge, umbrella",0
same,"Plant response rating, Rice",rice,0
same,Pigweed plant response rating,pigweed [12]; [24],60
same,Pigweed plant response rating,pigweed [12]; [21],40
same,Morningglory plant response rating,morningglory [13]; [24],70
same,Morningglory plant response rating,morningglory [13]; [21],30
same,"Plant response rating, Ducksalad",ducksalad,0
same,"Foxtail, Giant plant response rating","foxtail, giant [14]; [24]",30
same,"Foxtail, Giant plant response rating","foxtail, giant [14]; [21]",10
same,"Crabgrass, Large plant response rating","crabgrass, large [15]; [24]",70
same,"Crabgrass, Large plant response rating","crabgrass, large [15]; [21]",10
same,Velvetleaf plant response rating,velvetleaf [16]; [24],50
same,Velvetleaf plant response rating,velvetleaf [16]; [21],10
same,"Foxtail, Giant plant response rating","foxtail, giant [17]; [23]",90
same,"Foxtail, Giant plant response rating","foxtail, giant [17]; [22]",40

# Source: patent US20150105252A1, “SUBSTITUTED PYRAZOLES AS HERBICIDES” (E I DU PONT DE NEMOURS AND COMPANY, priority 2013, published 2015)
